Structures are written as SMILES. Where only a bound is given, the exact number is not on record here.

The target in the test is Glutaminyl-peptide cyclotransferase (Homo sapiens, UniProt Q16769). Nature of the test: Spectrophotometic Assay: Spectrophotometic Assay: This novel assay was used to determine the kinetic parameters for most of the QC substrates. QC activity was analyzed spectrophotometrically using a continuous method, that was derived by adapting a previous discontinuous assay (Bateman, R.C.J. 1989 J Neurosci Methods 30, 23-28).
Glutaminyl-peptide cyclotransferase, sequence (Q16769 whole entry): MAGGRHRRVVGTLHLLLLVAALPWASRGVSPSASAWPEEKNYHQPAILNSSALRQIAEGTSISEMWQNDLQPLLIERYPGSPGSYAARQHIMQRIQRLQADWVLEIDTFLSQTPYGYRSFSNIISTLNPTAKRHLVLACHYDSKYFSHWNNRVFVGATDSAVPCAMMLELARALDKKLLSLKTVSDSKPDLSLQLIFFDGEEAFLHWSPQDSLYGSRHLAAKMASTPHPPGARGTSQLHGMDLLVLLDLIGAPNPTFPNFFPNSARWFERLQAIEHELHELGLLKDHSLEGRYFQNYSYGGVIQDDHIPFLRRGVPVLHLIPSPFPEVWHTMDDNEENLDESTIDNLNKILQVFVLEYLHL
Take `CN1CCC(c2ccc(C3COC(=O)N3c3ccc4[nH]cnc4c3)cc2)CC1` (stereo unspecified): the concentration for half-maximal inhibition (IC50) (as a rule, the concentration at which inhibition is half-maximal) was less than 10 µM.
The molecule `O=C1OCC(c2ccc(C3CCC(N4CCOCC4)CC3)cc2)N1c1ccc2[nH]cnc2c1` (stereo unspecified) displayed a 50% inhibitory concentration (IC50) of less than 10 µM.
As for `CC(C)Oc1ccc(C[C@H]2COC(=O)N2c2ccc3[nH]cnc3c2)cc1`, the IC50 was less than 10 µM.
`COc1cc(F)c(C2COC(=O)N2c2ccc3[nH]cnc3c2)c(F)c1` (stereo unspecified) yielded an IC50 of less than 10 µM.
The result for `CC(c1ccccc1)C1COC(=O)N1c1ccc2[nH]cnc2c1` (stereo unspecified) reads less than 10 µM; that for `COC1CCC(c2ccc(C3COC(=O)N3c3ccc4[nH]cnc4c3)cc2)CC1` (stereo unspecified), less than 10 µM.
`O=C1OCC(c2ccc(OC3CCCCC3)cc2)N1c1ccc2[nH]cnc2c1` (stereo unspecified) gave an IC50 of less than 10 µM.
Next, `O=C1OCC(c2ccc(N3CCCC3)cc2)N1c1ccc2[nH]cnc2c1` (stereo unspecified): less than 10 µM; `O=C1OCC(c2ccc(C3CCC(O)CC3)cc2)N1c1ccc2[nH]cnc2c1` (stereo unspecified): less than 10 µM.
Take `O=C1OC[C@H](CCc2ccccc2)N1c1ccc2[nH]cnc2c1`: the IC50 was less than 10 µM.
Next, `O=C1OC[C@H](CC2CCCCC2)N1c1ccc2[nH]cnc2c1`: less than 10 µM; `CCCOc1ccc(C[C@H]2COC(=O)N2c2ccc3[nH]cnc3c2)cc1`: less than 10 µM.
The result for `O=C1CCC(c2ccc(C3COC(=O)N3c3ccc4[nH]cnc4c3)cc2)CC1` (stereo unspecified) reads less than 10 µM; that for `O=C1OCC(c2ccc(C3CCOCC3)cc2)N1c1ccc2[nH]cnc2c1` (stereo unspecified), less than 10 µM.
Next, `CN(C)CCOc1ccc([C@H]2COC(=O)N2c2ccc3[nH]cnc3c2)cc1`: less than 10 µM; `O=C1OC[C@H](C2CCCCC2)N1c1ccc2[nH]cnc2c1`: less than 10 µM.
Regarding `O=C1OC[C@H](c2ccc(N3CCCCC3)cc2)N1c1ccn2ccnc2c1`, the half-maximal inhibitory concentration (IC50) was less than 10 µM.
The result for `O=C1OC[C@H](c2ccc(N3CCOCC3)cc2)N1c1ccc2[nH]cnc2c1` reads less than 10 µM; that for `O=C1OC[C@H](c2ccc(N(C3CC3)C3CC3)cc2)N1c1ccc2[nH]cnc2c1`, less than 10 µM; that for `CCCOc1ccc([C@H]2COC(=O)N2c2cc(C)c3[nH]cnc3c2)cc1`, less than 10 µM.
`O=C1OC[C@H](c2ccc(C3CCCCC3)cc2)N1c1ccn2ccnc2c1`: the IC50 was less than 10 µM.
`O=C1OC[C@H](c2ccc(-c3ccccc3)cc2)N1c1ccc2[nH]cnc2c1` showed a concentration for half-maximal inhibition (IC50) of less than 10 µM.
The molecule `O=C1OC[C@H](c2cccc(N3CCOCC3)c2)N1c1ccc2[nH]cnc2c1` registered a half-inhibitory concentration (IC50) of less than 10 µM.
In turn, `CN1CCN(c2cccc([C@H]3COC(=O)N3c3ccc4nc[nH]c4c3)c2)CC1` yielded a half-inhibitory concentration (IC50) of less than 10 µM.
Next, `O=C1OC[C@H](C2CCN(c3ccccc3)CC2)N1c1ccc2[nH]cnc2c1`: less than 10 µM; `COCCN(CCOC)c1ccc([C@H]2COC(=O)N2c2ccc3[nH]cnc3c2)cc1`: less than 10 µM.
Next, `O=C1OC[C@H](c2ccc(N3CCOCC3)cc2)N1c1ccn2ccnc2c1`: less than 10 µM; `O=C1OC[C@H](c2ccc(N3CCN(c4ccccc4)CC3)cc2)N1c1ccn2ccnc2c1`: less than 10 µM; `O=C1OC[C@H](c2cccc(N3CCCCC3)c2)N1c1ccc2[nH]cnc2c1`: less than 10 µM.
`O=C1OC[C@H](c2ccc(N3CCCCC3)cc2)N1c1ccc2[nH]cnc2c1` registered an IC50 of less than 10 µM.
The result for `CCN(CC)c1ccc([C@H]2COC(=O)N2c2ccc3[nH]cnc3c2)cc1` reads less than 10 µM.
The result for `Cc1cc(N2C(=O)OC[C@@H]2c2ccccc2)cc2nc[nH]c12` reads less than 10 µM; that for `O=C1OC[C@H](C2CCC(c3ccccc3)CC2)N1c1ccc2[nH]cnc2c1` (stereo partly specified), less than 10 µM; that for `O=C1OC[C@H](c2ccccc2)N1c1cc(F)c2[nH]cnc2c1`, less than 10 µM.
The result for `COCCOc1ccc([C@H]2COC(=O)N2c2ccc3[nH]cnc3c2)cc1` reads less than 10 µM; that for `CCCOc1ccc([C@H]2OC(=O)N(c3ccc4nc[nH]c4c3)[C@H]2c2ccc(OCCC)cc2)cc1` (single isomer, unassigned), less than 10 µM.

The record behind these values is ChEMBL document CHEMBL3638480, “Inhibitors” (2013).
